# Assay results reported in ChEMBL document CHEMBL1121859, “Photochemical inactivation of the angiotensin receptor of rabbit aorta by N alpha-(2-nitro-5-azidobenzoyl)-[1-aspartic acid,5-isoleucine]angiotensin II” (1981).
# Key:
# Oryctolagus cuniculus [1] = organism: Oryctolagus cuniculus; assay: Compound was tested for the inhibition of nitroazidobenzoyl-angiotensin II induced contraction of rabbit aortic strips; format: functional; settings: Aorta, read-out: ED50 (the source's name)
# Oryctolagus cuniculus [2] = organism: Oryctolagus cuniculus; assay: Compound was tested for the inhibition of nitroazidobenzoyl-angiotensin II induced contraction of rabbit aortic strips; pD2 is the negative logarithm of ED50; format: functional, Aorta
SMILES,EC50 (Oryctolagus cuniculus [1]),pD2 (Oryctolagus cuniculus [2])
CC[C@H](C)[C@H](NC(=O)[C@H](Cc1ccc(O)cc1)NC(=O)[C@@H](NC(=O)[C@H](CCCN=C(N)N)NC(=O)[C@H](CC(=O)O)NC(=O)c1cc(N=[N+]=[N-])ccc1[N+](=O)[O-])C(C)C)C(=O)N[C@@H](Cc1c[nH]cn1)C(=O)N1CCC[C@H]1C(=O)N[C@@H](Cc1ccccc1)C(=O)O,60.4 nM,7.22
CC[C@H](C)[C@H](NC(=O)[C@H](Cc1ccc(O)cc1)NC(=O)[C@@H](NC(=O)[C@H](CCCNC(=N)N)NC(=O)[C@@H](N)CC(=O)O)C(C)C)C(=O)N[C@@H](Cc1cnc[nH]1)C(=O)N1CCC[C@H]1C(=O)N[C@@H](Cc1ccccc1)C(=O)O [ANGIOTENSIN II],3.63 nM,8.44
